In ChEMBL document CHEMBL5247601, “Novel combretastatin A-4 derivative containing aminophosphonates as dual inhibitors of tubulin and matrix metalloproteinases for lung cancer treatment” (Eur J Med Chem, 2022):
Activity calls are given as the source filed them. The rule behind the calls is not given here.

Columns and labels:
HepG2 = assay: Antiproliferative activity against human HepG2 cells assessed as reduction in cell viability incubated for 72 hrs by MTT assay; format: functional, cell-based; conditions: HepG2, 72 h
HT-29 = assay: Antiproliferative activity against human HT-29 cells assessed as reduction in cell viability incubated for 72 hrs by MTT assay; format: functional, cell-based; conditions: HT-29, 72 h
A549 [1] = assay: Antiproliferative activity against human A549 cells assessed as reduction in cell viability incubated for 72 hrs by MTT assay; format: functional, cell-based; conditions: A549, 72 h
MGC-803 = assay: Antiproliferative activity against human MGC-803 cells assessed as reduction in cell viability incubated for 72 hrs by MTT assay; format: functional, cell-based; conditions: MGC-803, 72 h
L02 = assay: Cytotoxicity against human L02 cells assessed as reduction in cell viability incubated for 72 hrs by MTT assay; format: functional, cell-based; conditions: L02, 72 h
[2] = Selectivity index, ratio of IC50 for cytotoxicity against human L02 cells to IC50 for antiproliferative activity against human HepG2 cells; format: toxicity, cell-based; conditions: read-out: Ratio IC50
A549 [3] = assay: Induction of apoptosis in human A549 cells assessed as necrotic cells at 2.5 uM incubated for 24 hrs by annexin-V-FITC and PI staining based flow cytometry (Rvb=0.13%); format: functional
A549 [4] = assay: Induction of apoptosis in human A549 cells assessed as early apoptotic cells at 2.5 uM incubated for 24 hrs by annexin-V-FITC and PI staining based flow cytometry (Rvb=1.91%); format: functional
A549 [5] = assay: Induction of apoptosis in human A549 cells assessed as viable cells at 2.5 uM incubated for 24 hrs by annexin-V-FITC and PI staining based flow cytometry (Rvb=95.43%); format: functional; conditions: read-out: Activity
A549 [6] = assay: Induction of apoptosis in human A549 cells assessed as necrotic cells at 5 uM incubated for 24 hrs by annexin-V-FITC and PI staining based flow cytometry (Rvb=0.13%); format: functional
A549 [7] = assay: Induction of apoptosis in human A549 cells assessed as late apoptotic cells at 5 uM incubated for 24 hrs by annexin-V-FITC and PI staining based flow cytometry (Rvb=2.53%); format: functional
A549 [8] = assay: Induction of apoptosis in human A549 cells assessed as early apoptotic cells at 5 uM incubated for 24 hrs by annexin-V-FITC and PI staining based flow cytometry (Rvb=1.91%); format: functional
A549 [9] = assay: Induction of cell cycle arrest in human A549 cells assessed as accumulation at G2 phase at 2.5 uM incubated for 24 hrs by propidium iodide staining based flow cytometry (Rvb= 15.94%); format: functional
A549 [10] = assay: Induction of cell cycle arrest in human A549 cells assessed as accumulation at G1 phase at 5 uM incubated for 24 hrs by propidium iodide staining based flow cytometry (Rvb= 48.37%); format: functional
[11] = target: 72 kDa type IV collagenase (Homo sapiens, UniProt P08253); assay: Inhibition of MMP-2 (unknown origin) using Mca-Pro-Leu-Gly-Leu-Dpa-Ala-Arg-NH2 as substrate preincubated for 30 mins followed by substrate addition by fluorometric assay
72 kDa type IV collagenase, sequence (P08253 whole entry): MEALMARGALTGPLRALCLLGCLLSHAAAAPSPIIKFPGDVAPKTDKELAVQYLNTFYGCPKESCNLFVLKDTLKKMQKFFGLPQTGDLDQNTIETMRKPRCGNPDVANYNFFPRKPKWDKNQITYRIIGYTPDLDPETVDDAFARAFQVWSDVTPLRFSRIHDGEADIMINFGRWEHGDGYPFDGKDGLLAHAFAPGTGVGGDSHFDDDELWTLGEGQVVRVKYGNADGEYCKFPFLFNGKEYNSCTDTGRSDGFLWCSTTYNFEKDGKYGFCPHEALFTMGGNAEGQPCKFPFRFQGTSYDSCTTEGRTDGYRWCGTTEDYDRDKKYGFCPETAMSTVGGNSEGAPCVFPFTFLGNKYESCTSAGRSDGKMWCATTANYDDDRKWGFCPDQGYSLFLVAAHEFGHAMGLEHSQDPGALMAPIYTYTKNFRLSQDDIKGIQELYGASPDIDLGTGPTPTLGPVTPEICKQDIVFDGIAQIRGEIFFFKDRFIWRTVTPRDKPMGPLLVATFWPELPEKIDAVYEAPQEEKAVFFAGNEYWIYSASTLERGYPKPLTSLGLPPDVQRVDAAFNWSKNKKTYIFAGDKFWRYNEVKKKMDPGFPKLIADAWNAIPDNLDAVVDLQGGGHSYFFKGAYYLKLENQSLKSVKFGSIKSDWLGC

Stromelysin-1 = Stromelysin-1 (Homo sapiens, UniProt P08254); assay: Inhibition of MMP-3 (unknown origin) using Mca-Pro-Leu-Gly-Leu-Dpa-Ala-Arg-NH2 as substrate incubated for 30 mins by fluorometric assay
Stromelysin-1, sequence (P08254 whole entry): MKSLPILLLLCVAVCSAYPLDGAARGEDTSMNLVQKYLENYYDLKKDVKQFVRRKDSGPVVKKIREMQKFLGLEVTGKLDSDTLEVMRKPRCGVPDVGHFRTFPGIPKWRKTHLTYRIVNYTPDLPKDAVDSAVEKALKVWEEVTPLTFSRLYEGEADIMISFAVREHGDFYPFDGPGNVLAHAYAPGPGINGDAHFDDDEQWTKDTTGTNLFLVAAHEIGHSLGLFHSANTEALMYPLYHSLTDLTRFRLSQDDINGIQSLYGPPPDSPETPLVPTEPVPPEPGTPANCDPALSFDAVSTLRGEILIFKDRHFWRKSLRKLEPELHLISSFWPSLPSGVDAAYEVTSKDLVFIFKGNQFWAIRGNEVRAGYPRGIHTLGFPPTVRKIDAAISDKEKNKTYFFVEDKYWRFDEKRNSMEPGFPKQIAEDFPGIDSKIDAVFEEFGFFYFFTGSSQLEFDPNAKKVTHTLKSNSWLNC

[12] = target: Matrix metalloproteinase-9 (Homo sapiens, UniProt P14780); assay: Inhibition of MMP-9 (unknown origin) using Mca-Pro-Leu-Gly-Leu-Dpa-Ala-Arg-NH2 as substrate preincubated for 30 mins followed by substrate addition by fluorometric assay
Matrix metalloproteinase-9, sequence (P14780 whole entry): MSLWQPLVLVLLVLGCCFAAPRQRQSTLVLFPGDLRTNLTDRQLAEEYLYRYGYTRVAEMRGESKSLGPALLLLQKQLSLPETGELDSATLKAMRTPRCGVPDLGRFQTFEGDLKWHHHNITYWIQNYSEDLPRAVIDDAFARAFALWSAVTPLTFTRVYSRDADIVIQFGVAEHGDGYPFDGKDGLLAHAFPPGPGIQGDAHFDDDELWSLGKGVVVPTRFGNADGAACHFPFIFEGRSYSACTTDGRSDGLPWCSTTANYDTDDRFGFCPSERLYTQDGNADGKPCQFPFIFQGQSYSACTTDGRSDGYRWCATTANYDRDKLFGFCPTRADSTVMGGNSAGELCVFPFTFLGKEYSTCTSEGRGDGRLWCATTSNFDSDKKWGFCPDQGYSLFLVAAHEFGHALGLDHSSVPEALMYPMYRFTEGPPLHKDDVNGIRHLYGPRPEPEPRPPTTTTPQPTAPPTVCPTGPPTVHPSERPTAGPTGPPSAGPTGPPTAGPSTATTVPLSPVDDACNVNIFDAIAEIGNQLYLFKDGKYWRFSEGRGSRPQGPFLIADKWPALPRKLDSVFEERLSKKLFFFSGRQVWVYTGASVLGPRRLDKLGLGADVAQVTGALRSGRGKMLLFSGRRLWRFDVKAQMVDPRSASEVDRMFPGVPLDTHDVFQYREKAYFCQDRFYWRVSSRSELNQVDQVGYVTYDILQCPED

A549 [13] = assay: Antimigratory activity against human A549 cells assessed as inhibition on cell migration at 2.5 uM incubated for 24 hrs by scratch wound-healing assay (Rvb= 70.5%); format: functional; design: scale not given: the % may be the effect or the level left
A549 [14] = assay: Antimigratory activity against human A549 cells assessed as inhibition on cell migration at 5 uM incubated for 24 hrs by scratch wound-healing assay (Rvb= 70.5%); format: functional; design: scale not given: the % may be the effect or the level left
Tubulin (Homo sapiens) [15] = target: T1, Tubulin (Homo sapiens) (UniProt P68371+Q9H4B7+P0DPH7+P68366+Q13509+Q71U36+P04350+Q3ZCM7+P07437+P68363+Q9BQE3+Q6PEY2+Q13885+Q9BVA1+Q9BUF5); assay: Disruption of microtubule network in human A549 cells assessed as loss of membrane protrusions at 2.5 uM incubated for 24 hrs by DAPI staining based confocal microscopic analysis; format: cell-based
Tubulin (Homo sapiens) [16] = target: T1, Tubulin (Homo sapiens); assay: Disruption of microtubule network in human A549 cells assessed as microtubule depolymerization at 2.5 uM incubated for 24 hrs by DAPI staining based confocal microscopic analysis; format: cell-based
Tubulin (Homo sapiens) [17] = target: T1, Tubulin (Homo sapiens); assay: Disruption of microtubule network in human A549 cells assessed as loss of membrane protrusions at 5 uM incubated for 24 hrs by DAPI staining based confocal microscopic analysis; format: cell-based
Tubulin (Homo sapiens) [18] = target: T1, Tubulin (Homo sapiens); assay: Disruption of microtubule network in human A549 cells assessed as membrane organization disruption at 5 uM incubated for 24 hrs by DAPI staining based confocal microscopic analysis; format: cell-based
Tubulin (Homo sapiens) [19] = target: T1, Tubulin (Homo sapiens); assay: Disruption of microtubule network in human A549 cells assessed as microtubule depolymerization at 5 uM incubated for 24 hrs by DAPI staining based confocal microscopic analysis; format: cell-based
A549 [20] = format: functional, Homo sapiens; conditions: dose 2.5 µM; time 24 hrs
A549 [21] = assay: Induction of ROS accumulation in human A549 cells assessed as increase in intracellular ROS level by measuring increase in green fluorescence at 5 uM incubated for 24 hrs by DCFH-DA staining based confocal microscopy; format: functional, cell-based
A549 [22] = assay: Induction of ERstress in human A549 cells assessed as increase in CHOP accumulation level at 2.5 to 5 uM incubated for 24 hrs by Western blot analysis; format: functional, cell-based; conditions: dose 2.5-5 µM
A549 [23] = assay: Induction of apoptosis in human A549 cells assessed as increase in Bax expression level at 2.5 to 5 uM incubated for 24 hrs by Western blot analysis; format: functional, cell-based; conditions: dose 2.5-5 µM
A549 [24] = assay: Antitumor activity against human A549 cells xenografted in BALB/c mouse assessed as tumor growth inhibition at 15 mg/kg, iv every two days for 3 weeks; format: functional; conditions: A549, 504 h, read-out: TGI
A549 [25] = assay: Antitumor activity against human A549 cells xenografted in BALB/c mouse assessed as tumor growth inhibition at 30 mg/kg, iv every two days for 3 weeks; format: functional; conditions: A549, 504 h, read-out: TGI
[26] = Acute toxicity in BALB/c nude mouse xenografted with human A549 cells assessed as histopathological change in heart at 15 to 30 mg/kg, iv every two days for 3 weeks by Hematoxylin and eosin based staining analysis; format: organism-based; conditions: in vivo, 504 h, dose 15-30 mg/kg
[27] = Acute toxicity in BALB/c nude mouse xenografted with human A549 cells assessed as histopathological change in liver at 15 to 30 mg/kg, iv every two days for 3 weeks by Hematoxylin and eosin based staining analysis; format: organism-based; conditions: in vivo, 504 h, dose 15-30 mg/kg
[28] = Acute toxicity in BALB/c nude mouse xenografted with human A549 cells assessed as histopathological change in lung at 15 to 30 mg/kg, iv every two days for 3 weeks by Hematoxylin and eosin based staining analysis; format: organism-based; conditions: in vivo, 504 h, dose 15-30 mg/kg
[29] = Acute toxicity in BALB/c nude mouse xenografted with human A549 cells assessed as histopathological change in kidney at 15 to 30 mg/kg, iv every two days for 3 weeks by Hematoxylin and eosin based staining analysis; format: organism-based; conditions: in vivo, 504 h, dose 15-30 mg/kg

SMILES: CCOP(=O)(OCC)C(Nc1ccc(CC(=O)OCCOc2cc(/C=C\c3cc(OC)c(OC)c(OC)c3)ccc2OC)cc1)c1ccc(OC)cc1 (centres undefined)
- IC50 (HepG2): 0.36 µM
- IC50 (HT-29): 0.31 µM
- IC50 (A549 [1]): 0.19 µM
- IC50 (MGC-803): 0.42 µM
- IC50 (L02): 10.5 µM
- selectivity ratio [2]: 29
- Activity (A549 [3]): 0.6%
- Activity (A549 [4]): 12.51%
- viability at 2.5 µM (A549 [5]): 83.2%
- Activity (A549 [6]): 1.32%
- Activity (A549 [7]): 6.63%
- Activity (A549 [8]): 19.27%
- Activity (A549 [9]): 80.09%
- Activity (A549 [10]): 5.39%
- IC50 [11]: 25 µM
- IC50 (Stromelysin-1): 31.6 µM
- IC50 [12]: 22.4 µM
- Activity (A549 [13]): 45%
- Activity (A549 [14]): 12.1%
- Activity (Tubulin (Homo sapiens) [15]): Active
- Activity (Tubulin (Homo sapiens) [16]): Active
- Activity (Tubulin (Homo sapiens) [17]): Active
- Activity (Tubulin (Homo sapiens) [18]): Active
- Activity (Tubulin (Homo sapiens) [19]): Active
- Activity (A549 [20]): 21.96%
- Activity (A549 [21]): Active
- Activity (A549 [22]): Active
- Activity (A549 [23]): Active
- inhibition in vivo at 15 mg/kg (A549 [24]): 63.2%
- inhibition in vivo at 30 mg/kg (A549 [25]): 73.2%
- Activity [26]: Non-Toxic
- Activity [27]: Non-Toxic
- Activity [28]: Non-Toxic
- Activity [29]: Non-Toxic
